Source: US20240287139A1, “A NOVEL COMPOUND ACTING AGAINST A SELECT GROUP OF BACTERIA” (priority 2021, published 2024)
In brackets after ≈: the same amount, converted by molar mass. Like-named read-outs stand apart in the source and are kept apart here. *1 amine or outer side, *2 acyl side, *3 side chain or, on linkers, in order; H or OH if unused. Where a SMILES comes first, the peptide text is derived from it. Bridges are numbered along the chain shown (N, C = ends). [ ]: non-standard residue; d: D form. The star is where a group is joined. ξ: configuration not given here. ξThr(3R)(O-yl) = C[C@@H](O[*:3])C(N[*:1])C(=O)[*:2]; βAsp = O=C(O)[C@H](CC(=O)[*:2])N[*:1]; His(π-Me) = Cn1cncc1C[C@H](N)C(=O)O; For = O=C*

Tests used:
[1] = system: Mycobacterium tuberculosis H37Rv mc^26020; assay: microbe, parasite or virus in culture; format: cell-based
[2] = system: Mycobacterium tuberculosis H37Rv mc^26020 ΔbacA; assay: microbe, parasite or virus in culture; format: cell-based
wild type E. coli = assay: microbe, parasite or virus in culture; format: cell-based; conditions: Escherichia coli
[3] = system: Bacteroides fragilis KLE 2244; assay: microbe, parasite or virus in culture; format: cell-based; conditions: KLE2244; Bacteroides fragilis KLE 2244, anaerobic conditions, human stool isolate
[4] = system: Clostridium perfringens KLE 2523; assay: microbe, parasite or virus in culture; format: cell-based; conditions: KLE2523
[5] = molecular target: E. coli topoisomerase IV (topo IV) (Escherichia coli, UniProt P0AFI2+P20083); format: biochemical; conditions: 100 μM compound; strong cleavage visible at 5 nM enzyme
[6] = system: Klebsiella pneumoniae ATCC 700603; assay: microbe, parasite or virus in culture; format: cell-based; conditions: ATCC700603
[7] = system: Escherichia coli ATCC25922; assay: microbe, parasite or virus in culture; format: cell-based
physchem = conditions: water
[8] = system: Mycobacterium smegmatis mc^2155; assay: microbe, parasite or virus in culture; format: cell-based; conditions: Mycolicibacterium smegmatis
[9] = system: Veillonella ratti KLE 2365; assay: microbe, parasite or virus in culture; format: cell-based; conditions: KLE2365; Veillonella ratti KLE 2365, anaerobic conditions, human stool isolate
HEK293 [10] = assay: cells; conditions: Homo sapiens, HEK293, read-out: Human cell line (IC50)
MtbGyrase [11] = molecular target: T1, MtbGyrase (Mycobacterium tuberculosis, UniProt P9WG45+P9WG47); assay: biochemical; set-up: species or system M. tuberculosis; conditions: 20 nM MtbGyrase
[12] = system: Pseudomonas aeruginosa PA01; assay: microbe, parasite or virus in culture; format: cell-based
Escherichia coli ΔtolC = assay: microbe, parasite or virus in culture; format: cell-based
Escherichia coli MG1655 = assay: microbe, parasite or virus in culture; format: cell-based
E. coli ATCC 25922 = assay: Septicemia model, survival; format: in vivo, mice; conditions: 1 h after infection
Description: The inventors next tested the compound of Formula IV in a simple model of septicemia infection with E. coli to evaluate its potential for activity in vivo. […] Mice were infected with E. coli ATCC25922 intraperitoneally for 1 hour followed by intraperitoneal administration of the compound of Formula IV.
Animal study was performed at Northeastern University, approved by Northeastern IACUC, and was performed according to institutional animal care and policies. Experiments were not randomized nor blinded, as it was not deemed necessary. Female CD-1 mice (20-25 g, experimentally naive, 6 weeks old) from Charles River were used for all studies. The compound of Formula IV was tested in a septicemia model against E. coli ATCC 25922. Mice were infected with 0.5 ml of E. coli ATCC 25922 suspension in BHI with 5% mucin (1×10^6 to 5×10^6) via intraperitoneal injection. This dose achieves >83% mortality within 24 h after infection. At 1 h after infection, mice were treated by the compound of Formula IV from 10 mg kg^−1 to 100 mg kg^−1 by intraperitoneal injection. Infection control mice were treated with 50 mg kg^−1 gentamicin as positive control. Survival was monitored for 120 h.

HepG2 [13] = assay: cells; conditions: Homo sapiens, HepG2, read-out: Human cell line (IC50)
[14] = system: Salmonella enterica KLE 2601; assay: microbe, parasite or virus in culture; format: cell-based; conditions: KLE2601; Salmonella enterica KLE 2601, anaerobic conditions, human stool isolate
E. coli gyrase = E. coli gyrase (Escherichia coli, UniProt P0AES4+P0AES6); format: biochemical; conditions: 100 μM compound
HepG2 [15] = system: HepG2
E. coli WO153 = assay: Macromolecule incorporation assay; format: cell-based; conditions: 8×MIC
Description: Incorporation of ^14C-thymidine (DNA), ^14C-uridine (RNA), ^14C-L-amino acid mixture (protein), ^14C-acetic acid (fatty acid) and ^14C-acetyl-glucosamine (peptidoglycan) was determined in cells treated with 8×MIC of the compound of Formula IV (grey bars). Ciprofloxacin (8×MIC), rifampicin (8×MIC), chloramphenicol (8×MIC), triclosan (8×MIC) and fosfomycin (8×MIC) were used as controls (white bars). There were n=3 biologically independent samples.
Macromolecular synthesis assay against DNA, RNA, protein and fatty acid were analyzed by ImQuest BioSciences Inc. (MD, USA) with E. coli WO153 cells.

Escherichia coli BW25113 = assay: microbe, parasite or virus in culture; format: cell-based
[16] = system: M. tuberculosis H37Rv mc^26020; assay: Time-dependent killing; format: cell-based; conditions: 10×MIC
[17] = system: Lactobacillus reuteri LTH5448; assay: microbe, parasite or virus in culture; format: cell-based; conditions: Limosilactobacillus reuteri; Lactobacillus reuteri LTH5448, anaerobic conditions
[18] = system: commensal bacteria including Lactobacillus sp. and Bacteroides sp.; format: cell-based
FaDu [19] = system: FaDu
[20] = format: in vivo, mouse; conditions: intraperitoneally at 100 mg kg^−1, observed for 24 hours
Escherichia coli WO153 = assay: microbe, parasite or virus in culture; format: cell-based
M. tuberculosis = assay: Microscopy, cell elongation; format: cell-based; conditions: 10×MIC, 48 hours of treatment
[21] = system: Mycobacterium abscessus ATCC 19977; assay: microbe, parasite or virus in culture; format: cell-based; conditions: Mycobacteroides abscessus, ATCC19977
[22] = system: Staphylococcus aureus HG003; assay: microbe, parasite or virus in culture; format: cell-based
MtbGyrase [23] = molecular target: T1, MtbGyrase; format: biochemical, M. tuberculosis; conditions: 100 μM compound, 0-20 nM enzyme
Escherichia coli ΔSbmA = assay: microbe, parasite or virus in culture; format: cell-based; conditions: Keio collection mutant
[24] = system: Enterococcus faecalis KLE 2341; assay: microbe, parasite or virus in culture; format: cell-based; conditions: KLE2341; Enterococcus faecalis KLE 2341, anaerobic conditions, human stool isolate
HEK293 [25] = system: HEK293
[26] = system: Lactobacillus paracasei KLE 2504; assay: microbe, parasite or virus in culture; format: cell-based; conditions: Lacticaseibacillus paracasei, KLE2504; Lactobacillus paracasei KLE 2504, anaerobic conditions, human stool isolate
[27] = system: Bacteroides stercoris KLE 2537; assay: microbe, parasite or virus in culture; format: cell-based; conditions: KLE2537; Bacteroides stercoris KLE 2537, anaerobic conditions, human stool isolate
[28] = system: Streptococcus parasanguinis KLE 2509; assay: microbe, parasite or virus in culture; format: cell-based; conditions: KLE2509; Streptococcus parasanguinis KLE 2509, anaerobic conditions, human stool isolate
FaDu [29] = assay: cells; conditions: Homo sapiens, read-out: Human cell line (IC50)
[30] = system: Acinetobacter baumannii ATCC 17978; assay: microbe, parasite or virus in culture; format: cell-based; conditions: ATCC17978
[31] = system: Mycobacterium tuberculosis H37Rv mc^26020 mCherry; assay: microbe, parasite or virus in culture; format: cell-based
MtbGyrase [32] = molecular target: T1, MtbGyrase; assay: DNA-stimulated ATPase assay (NADH-coupled); conditions: 250 nM gyrase, 100 μM drug
[33] = Mycobacterium tuberculosis, M. tuberculosis H37Rv mc^26020, read-out: MIC

T1 sequence (P9WG45 whole entry, looked up): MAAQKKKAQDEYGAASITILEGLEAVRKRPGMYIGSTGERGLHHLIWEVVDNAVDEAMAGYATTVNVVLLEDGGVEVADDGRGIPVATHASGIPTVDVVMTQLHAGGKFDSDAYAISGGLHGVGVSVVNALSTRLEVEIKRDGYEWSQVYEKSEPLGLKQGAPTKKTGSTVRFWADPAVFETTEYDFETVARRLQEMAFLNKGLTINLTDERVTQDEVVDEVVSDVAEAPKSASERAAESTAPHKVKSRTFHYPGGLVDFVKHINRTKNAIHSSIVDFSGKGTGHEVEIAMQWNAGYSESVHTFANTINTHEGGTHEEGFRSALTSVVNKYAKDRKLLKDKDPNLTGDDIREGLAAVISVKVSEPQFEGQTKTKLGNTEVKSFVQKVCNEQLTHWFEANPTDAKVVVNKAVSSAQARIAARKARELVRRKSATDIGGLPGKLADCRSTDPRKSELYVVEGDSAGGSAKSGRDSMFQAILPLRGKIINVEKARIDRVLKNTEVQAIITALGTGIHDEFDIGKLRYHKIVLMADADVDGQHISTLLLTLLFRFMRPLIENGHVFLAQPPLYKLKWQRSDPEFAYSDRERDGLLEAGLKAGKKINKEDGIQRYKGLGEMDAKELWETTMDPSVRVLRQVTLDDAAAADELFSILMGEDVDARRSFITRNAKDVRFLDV
T1 sequence (P9WG47 whole entry, looked up): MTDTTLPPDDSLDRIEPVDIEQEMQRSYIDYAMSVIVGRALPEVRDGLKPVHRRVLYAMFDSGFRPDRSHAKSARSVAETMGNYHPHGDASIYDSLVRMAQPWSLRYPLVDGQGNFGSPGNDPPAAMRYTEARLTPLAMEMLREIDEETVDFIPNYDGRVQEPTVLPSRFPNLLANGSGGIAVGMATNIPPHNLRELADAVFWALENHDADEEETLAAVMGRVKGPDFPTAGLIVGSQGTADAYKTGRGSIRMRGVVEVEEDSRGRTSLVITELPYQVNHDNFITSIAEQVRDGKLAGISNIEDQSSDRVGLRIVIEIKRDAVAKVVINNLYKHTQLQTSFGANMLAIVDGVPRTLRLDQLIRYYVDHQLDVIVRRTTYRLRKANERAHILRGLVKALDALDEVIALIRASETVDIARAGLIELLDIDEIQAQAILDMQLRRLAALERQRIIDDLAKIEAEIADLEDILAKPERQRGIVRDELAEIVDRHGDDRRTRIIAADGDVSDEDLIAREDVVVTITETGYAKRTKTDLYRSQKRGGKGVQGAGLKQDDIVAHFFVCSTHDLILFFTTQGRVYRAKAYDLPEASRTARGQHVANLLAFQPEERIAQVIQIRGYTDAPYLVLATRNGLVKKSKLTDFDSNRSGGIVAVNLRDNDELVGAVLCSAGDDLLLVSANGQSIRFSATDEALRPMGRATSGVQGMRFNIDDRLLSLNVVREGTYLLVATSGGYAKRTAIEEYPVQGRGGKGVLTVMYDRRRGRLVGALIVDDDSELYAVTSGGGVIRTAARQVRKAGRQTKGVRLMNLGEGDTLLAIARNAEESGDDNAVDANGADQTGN
Sequence of E. coli gyrase (P0AES4 whole entry, one chain of several): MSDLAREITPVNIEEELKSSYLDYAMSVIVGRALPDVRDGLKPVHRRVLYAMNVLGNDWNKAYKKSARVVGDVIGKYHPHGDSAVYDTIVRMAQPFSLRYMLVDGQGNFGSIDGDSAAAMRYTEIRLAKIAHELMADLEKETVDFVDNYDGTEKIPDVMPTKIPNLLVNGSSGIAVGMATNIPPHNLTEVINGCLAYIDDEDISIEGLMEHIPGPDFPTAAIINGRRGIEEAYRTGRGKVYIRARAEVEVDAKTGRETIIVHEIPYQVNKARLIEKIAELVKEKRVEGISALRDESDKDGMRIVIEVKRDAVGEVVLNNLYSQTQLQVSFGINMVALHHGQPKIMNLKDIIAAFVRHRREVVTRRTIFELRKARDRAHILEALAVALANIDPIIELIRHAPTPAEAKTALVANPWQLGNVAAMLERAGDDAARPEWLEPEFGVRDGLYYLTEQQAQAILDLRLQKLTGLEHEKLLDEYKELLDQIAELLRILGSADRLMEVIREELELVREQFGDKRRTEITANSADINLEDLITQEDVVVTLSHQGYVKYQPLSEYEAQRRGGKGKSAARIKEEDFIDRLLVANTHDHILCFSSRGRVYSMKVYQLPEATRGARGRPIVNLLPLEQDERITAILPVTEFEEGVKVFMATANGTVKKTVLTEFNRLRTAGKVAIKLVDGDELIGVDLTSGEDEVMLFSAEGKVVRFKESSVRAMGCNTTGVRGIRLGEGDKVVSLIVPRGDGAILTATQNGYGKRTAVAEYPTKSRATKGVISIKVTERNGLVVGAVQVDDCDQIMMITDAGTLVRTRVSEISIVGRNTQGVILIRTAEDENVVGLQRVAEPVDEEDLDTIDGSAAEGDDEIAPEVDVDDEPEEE
Sequence of E. coli topoisomerase IV (topo IV) (P20083 whole entry): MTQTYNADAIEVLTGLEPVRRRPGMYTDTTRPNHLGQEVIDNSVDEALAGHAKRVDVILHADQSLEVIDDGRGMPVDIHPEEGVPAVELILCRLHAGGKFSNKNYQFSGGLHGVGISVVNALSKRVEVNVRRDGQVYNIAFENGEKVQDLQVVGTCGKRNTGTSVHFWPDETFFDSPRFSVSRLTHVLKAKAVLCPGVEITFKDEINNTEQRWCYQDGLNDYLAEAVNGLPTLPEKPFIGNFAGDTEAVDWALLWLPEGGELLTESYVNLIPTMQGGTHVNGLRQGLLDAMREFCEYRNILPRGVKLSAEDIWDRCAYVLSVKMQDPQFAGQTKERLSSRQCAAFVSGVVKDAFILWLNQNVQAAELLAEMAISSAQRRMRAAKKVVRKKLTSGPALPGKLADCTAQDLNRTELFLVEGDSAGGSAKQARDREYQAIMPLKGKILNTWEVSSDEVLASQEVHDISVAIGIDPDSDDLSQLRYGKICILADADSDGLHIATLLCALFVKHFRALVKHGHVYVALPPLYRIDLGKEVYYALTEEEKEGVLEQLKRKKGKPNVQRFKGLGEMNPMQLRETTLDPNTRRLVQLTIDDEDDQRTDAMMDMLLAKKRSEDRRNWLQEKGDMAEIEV
Sequence of E. coli topoisomerase IV (topo IV) (P0AFI2 whole entry): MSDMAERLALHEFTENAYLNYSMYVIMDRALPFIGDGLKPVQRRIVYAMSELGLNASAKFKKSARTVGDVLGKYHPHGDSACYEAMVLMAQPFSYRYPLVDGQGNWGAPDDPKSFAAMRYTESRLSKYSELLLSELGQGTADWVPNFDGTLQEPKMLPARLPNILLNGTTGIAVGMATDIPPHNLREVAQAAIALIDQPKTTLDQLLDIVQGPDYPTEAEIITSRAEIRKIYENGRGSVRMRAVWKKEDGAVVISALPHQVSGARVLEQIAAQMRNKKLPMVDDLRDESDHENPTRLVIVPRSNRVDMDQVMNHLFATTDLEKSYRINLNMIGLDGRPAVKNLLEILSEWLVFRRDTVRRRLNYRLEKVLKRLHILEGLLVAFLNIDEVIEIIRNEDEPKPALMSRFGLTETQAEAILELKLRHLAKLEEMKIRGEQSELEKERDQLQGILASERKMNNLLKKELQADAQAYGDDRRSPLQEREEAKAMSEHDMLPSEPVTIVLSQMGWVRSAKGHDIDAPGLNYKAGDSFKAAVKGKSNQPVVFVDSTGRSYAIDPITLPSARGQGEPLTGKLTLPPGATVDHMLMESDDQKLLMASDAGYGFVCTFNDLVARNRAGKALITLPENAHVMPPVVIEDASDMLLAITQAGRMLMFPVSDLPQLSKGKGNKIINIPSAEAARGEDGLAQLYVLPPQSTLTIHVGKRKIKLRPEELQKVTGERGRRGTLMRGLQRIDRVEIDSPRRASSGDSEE

COc1c(N2C[C@@H]3CCCN[C@@H]3C2)c(F)cc2c(=O)c(C(=O)O)cn(C3CC3)c12 [Moxifloxacin, reference compound]
MIC [1, 33]: 0.125 µg/mL (≈ 0.311 µM)

C[C@H]1OC(=O)C[C@@H](C(=O)O)NC(=O)[C@H](CO)NC(=O)[C@@H](CCCNC(=N)N)NC(=O)CNC(=O)[C@H](Cc2ccccc2)NC(=O)[C@@H](CO)NC(=O)C[C@@H](C(=O)O)NC(=O)[C@H](Cc2cncn2C)NC(=O)C1NC(=O)[C@@H](CCCNC(=N)N)NC(=O)[C@@H](NC(=O)[C@H](Cc1c[nH]c2ccccc12)NC=O)[C@@H](C)O (stereo partly drawn) [compound of Formula IV] (For-WT[dR][ξThr(3R)(O-yl)][His(π-Me)][βAsp][dS]FG[dR]SD-OH; ester 4-12)
MIC [2]: 16 µg/mL
MIC ([1]; Mycobacterium tuberculosis H37Rv mc^26020): 0.25 µg/mL
MIC [1, 33]: 0.25 µg/mL
MIC (wild type E. coli): 16 µg/mL
MIC [3]: 64 µg/mL
MIC [4]: 64 µg/mL
DNA cleavage by E. coli topo IV [5]: stimulated DNA cleavage
MIC [6]: 32 µg/mL
MIC [7]: 8 µg/mL
solubility (physchem): > 40 mg/mL
MIC [8]: 8 µg/mL
MIC [9]: > 128 µg/mL
IC50 (HEK293 [10]): > 128 µg/mL
DNA cleavage in the absence of ATP (MtbGyrase [11]; absence of ATP): little to no cleavage
IC50 (MtbGyrase [11]; in the presence of ATP): ~1000 nM
MIC [12]: > 128 µg/mL
MIC of tolC deletion mutant, times higher as compared to E. coli WO153 (Escherichia coli ΔtolC): 4 times
MIC of tolC deletion mutant, times lower than in the wild type (Escherichia coli ΔtolC): 64 times
MIC (Escherichia coli ΔtolC; Escherichia coli ΔtolC, Keio collection mutant): 0.25 µg/mL
MIC (Escherichia coli ΔtolC; Escherichia coli, E. coli tolC deletion mutant, read-out: MIC): 0.25 µg/mL
MIC (Escherichia coli MG1655): 16 µg/mL
efficacy, septicemia infection with E. coli ATCC25922 (E. coli ATCC 25922; 100 mg kg^−1 dose intraperitoneal): completely protected
efficacy, septicemia infection with E. coli ATCC25922 (E. coli ATCC 25922; single dose of 25 mg kg^−1 intraperitoneal): significant efficacy
IC50 (HepG2 [13]): > 128 µg/mL
MIC [14]: 128 µg/mL
inhibition of DNA supercoiling by gyrase compared with supercoil relaxation by topo IV (E. coli gyrase): more potent inhibitor of DNA supercoiling by gyrase
DNA cleavage by E. coli gyrase (E. coli gyrase; strong cleavage visible at 5 nM enzyme): stimulated DNA cleavage
toxicity against human cell line (HepG2 [15]): no toxicity
effect on DNA synthesis (^14C-thymidine incorporation) (E. coli WO153): inhibits DNA synthesis
effect on RNA, protein and fatty acid synthesis (E. coli WO153): less of an effect
MIC (Escherichia coli BW25113): 16 µg/mL
killing of exponentially growing M. tuberculosis ([16]; exponential cells): highly bactericidal
killing of stationary M. tuberculosis ([16]; stationary cells): highly bactericidal
MIC [17]: > 128 µg/mL
activity against commensal bacteria [18]: no activity
toxicity against human cell line (FaDu [19]): no toxicity
toxicity in a mouse, survival [20]: no indications of toxicity
MIC (Escherichia coli WO153; Escherichia coli WO153): 0.0625 µg/mL
MIC (Escherichia coli WO153; Escherichia coli, E. coli WO153, compromised penetration barrier, read-out: MIC): 0.0625 µg/mL
cell length compared to nontreated cells (M. tuberculosis): approximately 2 times
MIC [21]: 16 µg/mL
MIC [22]: 128 µg/mL
DNA cleavage by MtbGyrase (MtbGyrase [23]): induced DNA cleavage
supercoiling activity of MtbGyrase (MtbGyrase [23]): inhibited the supercoiling activity
MIC (Escherichia coli ΔSbmA): 128 µg/mL
MIC [24]: > 128 µg/mL
toxicity against human cell line (HEK293 [25]): no toxicity
MIC [26]: > 128 µg/mL
MIC [27]: > 128 µg/mL
MIC [28]: > 128 µg/mL
IC50 (FaDu [29]): > 128 µg/mL
MIC [30]: 128 µg/mL
MIC [31]: 0.0625 µg/mL
overall rate (vmax) of ATPase activity (MtbGyrase [32]): 45±7.2 ATP·s^−1 per enzyme
